Test results from PubChem BioAssay AID652274 (Broad Institute, 2013).
Records with an inconclusive call do not appear.

Test system: washed human platelets, SFLLRN aggregation after wash, transmittance
Experiment: washed human platelet aggregation block persisting post-wash – cell-based, aggregometer, SFLLRN stimulus, single point, dry powder, mechanism study for PDI inhibitor project, late-stage follow-up (AID 652274)
Conditions: at 30 µM

With `C/C1=C\C[C@H](OC(=O)c2ccc(O)cc2)/C(C)=C/[C@@H](O)C(C)(C)CCC1` the platelet aggregation inhibition after wash (%), hits give high values was 100%.
